Data as given in publication PMC6478823, “A suite of phenotypic assays to ensure pipeline diversity when prioritizing drug-like Cryptosporidium growth inhibitors” (Nature Communications, 2019).

What was measured:
[1] = test system: HCT-8 cell DNA replication; experiment: Host cell DNA replication (EdU labeling); format: cell-based, human; conditions: 10 mM, positive control
C. parvum = experiment: DNA replication assay (EdU incorporation); format: cell-based, Cryptosporidium parvum; conditions: 10 mM, positive control
Source text: Following cell invasion, Cryptosporidium trophozoites grow and multiply to give rise to multinucleated type I meronts (Fig. 3a). The thymidine analog 5-ethynyl-2′-deoxyuridine (EdU) is efficiently incorporated into newly synthesized DNA, and can be detected using click chemistry. We used EdU to measure parasite intracellular DNA replication, as a surrogate for the more complex phenotype of intracellular growth and division. The approach for differentially labeling newly synthesized parasite DNA compared to host cell DNA was to take advantage of the fact that C. parvum replicates more quickly than the nearly confluent host cells. Thus, by adding EdU shortly before egress, it was possible to preferentially label replicating parasites (Fig. 3b, c). DNA staining with Hoechst labeled all of the host and parasite DNA, making it challenging to visualize and quantify parasite DNA. A simple DNA stain would also not distinguish pre-existing DNA from newly synthesized DNA (Fig. 3c). In contrast, EdU labeling only occurred with incorporation into newly synthesized DNA. Incorporated EdU was then easily stained for immunofluorescence and labeled parasites were quantified using high-content microscopy and an NIH ImageJ macro (Fig. 3c, DMSO condition). The […] hydroxyurea (10 mM), a known inhibitor of DNA replication, was used as a positive control for assay validation. […] Compounds with activity in this assay cannot be concluded to specifically target DNA replication, which is a complex phenotype.
Confluent HCT-8 cell monolayers in glass bottom plates were infected with C. parvum, and compounds were added at EC90 following invasion. At 9 h post-infection, 10 µM EdU was added, followed by incubation for another 2 h, and then washing, fixing, and staining for microscopy. […] 40 × dry objective (NA = 0.7); scale = 5 µm. Arrows indicate selected parasites with EdU-labeled DNA. d Quantification of EdU incorporation. […] Data are mean and SD of 2–5 biological replicates.
After incubation of cells with EdU for 2 h, cells were washed 3 times with PBS-D-gal and then fixed with PBS containing 4% PFA. Cells were then permeabilized and stained for EdU using the Click-iT® assay kit (Thermo Fisher Scientific, catalog# C10340) as per the manufacturer’s instructions. Cells were then imaged by focusing on parasites (note that the host cell nuclei are in a different focal plane) using a 40 × dry objective (0.7 NA) and EdU, and lectin numbers quantified using ImageJ software and the custom macro in Supplementary Method 1.

Structure (SMILES): NC(=O)NO [hydroxyurea]
- effect on HCT-8 cell DNA replication [1]: blocked both parasite and HCT-8 cell DNA replication
- effect on parasite DNA replication (C. parvum): blocked both parasite and HCT-8 cell DNA replication
